The source of these data is patent US20240092799A1, “MNK INHIBITORS” (Hepagene Therapeutics (HK) Limited, priority 2020, published 2024).

Where only a bound is given, the exact number is not on record here.

Chain of MNK2 (Q9HBH9 whole entry): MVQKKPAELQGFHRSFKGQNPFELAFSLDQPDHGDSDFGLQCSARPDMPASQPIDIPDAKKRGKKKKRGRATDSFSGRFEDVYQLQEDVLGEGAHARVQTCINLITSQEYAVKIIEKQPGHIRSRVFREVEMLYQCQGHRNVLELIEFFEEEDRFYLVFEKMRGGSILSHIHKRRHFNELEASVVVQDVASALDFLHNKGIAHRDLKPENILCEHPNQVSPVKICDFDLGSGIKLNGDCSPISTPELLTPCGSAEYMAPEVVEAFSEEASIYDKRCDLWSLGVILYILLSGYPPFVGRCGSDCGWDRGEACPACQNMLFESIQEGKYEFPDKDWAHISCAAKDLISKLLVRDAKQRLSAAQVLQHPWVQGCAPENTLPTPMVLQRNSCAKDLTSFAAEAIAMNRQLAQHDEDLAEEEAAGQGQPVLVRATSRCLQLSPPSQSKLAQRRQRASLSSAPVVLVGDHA

The assay addresses MNK2 (Homo sapiens (Human), UniProt Q9HBH9). Put plainly: MNK Biochemical Enzymatic Assay (ADP-Glo), MNK2 binding assay. Here is the method: MNK Biochemical Enzymatic Assay. This protocol establishes the binding assays for MNK1 and MNK2 using ADP-Glo assay. MNK phosphorylates the substrate and converts ATP to ADP, which was detected by Envision and used to reflect the reminding activity of MNK. Reagents and equipment used in the assay are listed below, followed by the protocol.
• a) Add 50 μL compound to 384-well dilution plate • b) Dilute compound 1:3 in succession in DMSO for each column for 10+0 pts (refer to dilution plate map) • c) Transfer 0.1 μL diluted compound solution in each row to 384 assay plate using Echo, each column containing 2 replicates (refer to assay plate map) • d) Add 5 μL enzyme working solution to 384-well assay plate, centrifuge 1000 RPM for 1 min • e) Incubate at 25° C. for 15 min • f) Add 5 μL substrate working solution to initiate reaction • g) Incubate at 25° C. for 60 min • h) Add 10 μL ADP Glo reagent, centrifuge 1000 RPM for 1 min • i) Incubate at 25° C. for 60 min • j) Add 20 μL kinase detection reagent, centrifuge 1000 RPM for 1 min • k) Incubate at 25° C. for 60 min • l) Read on Envision for US LUM as RLU • m) Data analysis: IC50s were determined based on a non-linear regression analysis of data collected.
In the case of `Cc1cc(Nc2cc(NC3=NC(C)(C)CO3)ncn2)[n+]([O-])c2c1C(=O)NC21CCCCC1` [Compound XXIX-M, 2′-((6-((4,4-dimethyl-4,5-dihydrooxazol-2-yl)amino)pyrimidin-4-yl)amino)-4′-methyl-5′-oxo-5′,6′-dihydrospiro[cyclohexane-1,7′-pyrrolo[3,4-b]pyridine] 1′-oxide], the IC50 was in the range of 100 to 1000 nM.

The compound `Nc1cc(Nc2cc3c(s2)C(=O)NC32CCCC2)ncn1` [Compound X-E, 2′-((6-aminopyrimidin-4-yl)amino)spiro[cyclopentane-1,4′-thieno[2,3-c]pyrrol]-6′(5′H)-one] had an IC50 of 10 to 100 nM.

With `Cc1cc(Nc2cc(N[C@@H]3CCC[C@@H]3O)ncn2)[n+]([O-])c2c1C(=O)NC21CCCCC1` [Compound XXIX-W, 2′-((6-(((1R,2S)-2-hydroxycyclopentyl)amino)pyrimidin-4-yl)amino)-4′-methyl-5′-oxo-5′,6′-dihydrospiro[cyclohexane-1,7′-pyrrolo[3,4-b]pyridine] 1′-oxide], the IC50 was in the range of 100 to 1000 nM.

On to `Cc1cc(Nc2cc(NC(=O)N3CCCC3)ncn2)[n+]([O-])c2c1C(=O)NC21CCCCC1` [Compound XXIX-AQ, 4′-methyl-5′-oxo-2′-((6-(pyrrolidine-1-carboxamido)pyrimidin-4-yl)amino)-5′,6′-dihydrospiro[cyclohexane-1,7′-pyrrolo[3,4-b]pyridine] 1′-oxide], for which the IC50 is 10 to 100 nM.

As to `Cc1nc(Nc2ccccn2)cc(Nc2cc(C)c3c([n+]2[O-])C2(CCCCC2)NC3=O)n1` [Compound XXIX-AAB, 4′-methyl-2′-((2-methyl-6-(pyridin-2-ylamino)pyrimidin-4-yl)amino)-5′-oxo-5′,6′-dihydrospiro[cyclohexane-1,7′-pyrrolo[3,4-b]pyridine] 1′-oxide], the IC50 was 100 to 1000 nM.

With `COCCNc1cc(Nc2cc(C)c3c([n+]2[O-])C2(CCCCC2)NC3=O)ncn1` [Compound XXIX-B, 2′-((6-((2-methoxyethyl)amino)pyrimidin-4-yl)amino)-4′-methyl-5′-oxo-5′,6′-dihydrospiro[cyclohexane-1,7′-pyrrolo[3,4-b]pyridine] 1′-oxide], the IC50 lay within 10 to 100 nM.

On to `Cc1cc(Nc2ncnc3[nH]ncc23)[n+]([O-])c2c1C(=O)NC21CCCCC1` [Compound XXIX-AAH, 2′-((1H-pyrazolo[3,4-d]pyrimidin-4-yl)amino)-4′-methyl-5′-oxo-5′,6′-dihydrospiro[cyclohexane-1,7′-pyrrolo[3,4-b]pyridine] 1′-oxide], for which the half-maximal inhibitory concentration (IC50) was in the range of 10 to 100 nM.

For `Cc1cc(Nc2cc(N[C@H]3C[C@H](O)C3)ncn2)[n+]([O-])c2c1C(=O)NC21CCCCC1` [Compound XXIX-T, trans-2′-((6-(((1r,3r)-3-hydroxycyclobutyl)amino)pyrimidin-4-yl)amino)-4′-methyl-5′-oxo-5′,6′-dihydrospiro[cyclohexane-1,7′-pyrrolo[3,4-b]pyridine] 1′-oxide], the IC50 is 10 to 100 nM.

In turn, `CC1(C)COC(Nc2cc(Nc3nc4c(s3)C(=O)NC43CCCCC3)ncn2)=N1` [Compound XXVIII-E, 2′-((6-((4,4-dimethyl-4,5-dihydrooxazol-2-yl)amino)pyrimidin-4-yl)amino)spiro[cyclohexane-1,4′-pyrrolo[3,4-d]thiazol]-6′(5′H)-one] displayed an IC50 of over 1000 nM.

As for `Cc1cccnc1Nc1cc(Nc2cc(C)c3c([n+]2[O-])C2(CCCCC2)NC3=O)ncn1` [Compound XXIX-AZ, 4′-methyl-2′-((6-((3-methylpyridin-2-yl)amino)pyrimidin-4-yl)amino)-5′-oxo-5′,6′-dihydrospiro[cyclohexane-1,7′-pyrrolo[3,4-b]pyridine] 1′-oxide], the IC50 lay within 10 to 100 nM.

`Cc1nc(Nc2cc(C)c3c([n+]2[O-])C2(CCCCC2)NC3=O)cc(N[C@H]2CCOC2)n1` [Compound XXIX-AY, (S)-4′-methyl-2′-((2-methyl-6-((tetrahydrofuran-3-yl)amino)pyrimidin-4-yl)amino)-5′-oxo-5′,6′-dihydrospiro[cyclohexane-1,7′-pyrrolo[3,4-b]pyridine] 1′-oxide] yielded an IC50 of 10 to 100 nM.

In turn, `CNc1cc(Nc2cc3c(s2)C(=O)NC32CCCCC2)ncn1` [Compound XXIII, 2′-((6-(Methylamino)pyrimidin-4-yl)amino)spiro[cyclohexane-1,4′-thieno[2,3-c]pyrrol]-6′(5′H)-one] had an IC50 of 10 to 100 nM.

Turning to `Nc1cc(Nc2sc3c(c2Cl)C2(CCCCC2)NC3=O)ncn1` [Compound XXI, 2′-((6-Aminopyrimidin-4-yl)amino)-3′-chlorospiro[cyclohexane-1,4′-thieno[2,3-c]pyrrol]-6′(5′H)-one], the IC50 fell in the range of 100 to 1000 nM.

`Nc1cc(Nc2cc3n(n2)C2(CCCCC2)NC3=O)ncn1` [Compound XI, 2′-((6-Aminopyrimidin-4-yl)amino)spiro[cyclohexane-1,6′-imidazo[1,5-b]pyrazol]-4′(5′H)-one] returned an IC50 of over 1000 nM.

In the case of `COCCCNc1cc(Nc2cc(C)c3c([n+]2[O-])C2(CCCCC2)NC3=O)ncn1` [Compound XXIX-C, 2′-((6-((3-methoxypropyl)amino)pyrimidin-4-yl)amino)-4′-methyl-5′-oxo-5′,6′-dihydrospiro[cyclohexane-1,7′-pyrrolo[3,4-b]pyridine] 1′-oxide], the IC50 was 10 to 100 nM.

`O=C1NC2(CCCCC2)c2cc(Nc3ncnc4sc5c(c34)CCC(C(=O)N3CCC3)C5)sc21` (stereo not drawn) [Compound XXV-D, 2′-((7-(azetidine-1-carbonyl)-5,6,7,8-tetrahydrobenzo[4,5]thieno[2,3-d]pyrimidin-4-yl)amino)spiro[cyclohexane-1,4′-thieno[2,3-c]pyrrol]-6′(5′H)-one] gave an IC50 of 10 to 100 nM.

`COCCNc1cc(Nc2cc3c(s2)C(=O)NC32CCCCC2)ncn1` [Compound XXIII-W, 2′-((6-((2-methoxyethyl)amino)pyrimidin-4-yl)amino)spiro[cyclohexane-1,4′-thieno[2,3-c]pyrrol]-6′(5′H)-one] registered an IC50 of 10 to 100 nM.

As for `Cc1cc(Nc2cc(N[C@H]3CCNC3)ncn2)[n+]([O-])c2c1C(=O)NC21CCCCC1` [Compound XXIX-S, (S)-4′-methyl-5′-oxo-2′-((6-(pyrrolidin-3-ylamino)pyrimidin-4-yl)amino)-5′,6′-dihydrospiro[cyclohexane-1,7′-pyrrolo[3,4-b]pyridine] 1′-oxide], the IC50 is 10 to 100 nM.

For `Nc1cc(Nc2cc3c(s2)C(=O)NC32CCOCC2)ncn1` [Compound XXII, 2′-((6-Aminopyrimidin-4-yl)amino)-2,3,5,6-tetrahydrospiro[pyran-4,4′-thieno[2,3-c]pyrrol]-6′(5′H)-one], the IC50 was 10 to 100 nM.

Take `O=C1NC2(CCCCC2)c2cc(Nc3cc(NC4CCNC4)ncn3)sc21` (stereo not drawn) [Compound XXIII-R, 2′-((6-(pyrrolidin-3-ylamino)pyrimidin-4-yl)amino)spiro[cyclohexane-1,4′-thieno[2,3-c]pyrrol]-6′(5′H)-one]: the IC50 is 100 to 1000 nM.

`Cc1cc(-c2cc(-c3cc(N)ncn3)no2)c(=O)n2c1C(=O)NC21CCCCC1` [Compound XVIII, 6′-(3-(6-Aminopyrimidin-4-yl)isoxazol-5-yl)-8′-methyl-2′H-spiro[cyclohexane-1,3′-imidazo[1,5-a]pyridine]-1′,5′-dione] showed an IC50 of over 1000 nM.
